Tests used:
[1] = Half life in Beagle dog at 1 mg/kg, iv measured upto 24 hrs by LC-MS/MS analysis; format: ADME, organism-based, Canis lupus familiaris; settings: in vivo
[2] = system: VCaP; assay: Antitumor activity against human VCaP cells xenografted in CB17-SCID mouse assessed as tumor growth inhibition at 20 mg/kg, po administered for 21 days; settings: 504 h, read-out: TGI
[3] = Metabolic stability in dog liver microsome assessed as parent compound remaining measured at 120 mins in presence of NADPH by LC-MS/MS analysis; format: ADME, Canis lupus familiaris; settings: liver microsomes, read-out: Stability
[4] = Metabolic stability in human plasma assessed as parent compound remaining measured after 120 mins by LC-MS/MS analysis; format: ADME, cell-free; settings: read-out: Stability
[5] = in vivo; settings: Sprague-Dawley, rat, po, 5 mg/kg
[6] = Metabolic stability in human hepatocyte assessed as half life measured upto 120 mins by LC-MS/MS analysis; format: ADME, cell-based; settings: hepatocytes
[7] = Metabolic stability in non human primate hepatocyte assessed as half life measured upto 120 mins by LC-MS/MS analysis; format: ADME, cell-based; settings: primates, hepatocytes
[8] = in vivo; settings: Sprague-Dawley, rat, po, 5 mg/kg; remark: listed apart in the source
[9] = in vivo; settings: Sprague-Dawley, rat, po, 5 mg/kg; remark: listed apart in the source
[10] = Metabolic stability in dog plasma assessed as parent compound remaining measured after 120 mins by LC-MS/MS analysis; format: ADME, cell-free, Canis lupus familiaris; settings: read-out: Stability
[11] = Metabolic stability in mouse liver microsome assessed as parent compound remaining measured at 120 mins in presence of NADPH by LC-MS/MS analysis; format: ADME; settings: liver microsomes, read-out: Stability
[12] = Volume of distribution at steady state in Sprague-Dawley rat at 2 mg/kg, iv measured upto 24 hrs by LC-MS/MS analysis; settings: in vivo
[13] = Toxicity in CB17-SCID mouse assessed as body weight loss at 10 to 40 mg/kg, po administered for 21 days; format: organism-based; settings: in vivo, 504 h, dose 10-40 mg/kg, time 21 day
[14] = Cmax in non human primate at 2 mg/kg, po measured upto 24 hrs by LC-MS/MS analysis; format: ADME, organism-based; set-up: dose 2 mg/kg, time < 24 hrs, route po; settings: primates, in vivo
[15] = Metabolic stability in dog plasma assessed as half life measured after 2 hrs by LC-MS/MS analysis; format: ADME, cell-free, Canis lupus familiaris
[16] = Tmax in Beagle dog at 10 mg/kg, po measured upto 24 hrs by LC-MS/MS analysis; format: ADME, organism-based, Canis lupus familiaris; settings: in vivo
[17] = Half life in non human primate at 2 mg/kg, po measured upto 24 hrs by LC-MS/MS analysis; format: ADME, organism-based; settings: primates, in vivo
[18] = Metabolic stability in rat hepatocyte assessed as half life measured upto 120 mins by LC-MS/MS analysis; format: ADME, cell-based; settings: hepatocytes
[19] = Metabolic stability in non human primate plasma assessed as half life measured after 2 hrs by LC-MS/MS analysis; format: ADME, cell-free; settings: primates
[20] = Metabolic stability in rat plasma assessed as parent compound remaining measured after 120 mins by LC-MS/MS analysis; format: ADME, cell-free; settings: read-out: Stability
[21] = AUC (0 to t) in non human primate at 2 mg/kg, po measured upto 24 hrs by LC-MS/MS analysis; format: ADME, organism-based; set-up: time < 24 hrs, dose 2 mg/kg, route po; settings: primates, in vivo
[22] = Oral bioavailability in non human primate at 2 mg/kg measured upto 24 hrs by LC-MS/MS analysis; format: ADME, organism-based; settings: primates, in vivo
[23] = AUC (0 to t) in Beagle dog at 1 mg/kg, iv measured upto 24 hrs by LC-MS/MS analysis; format: ADME, organism-based, Canis lupus familiaris; set-up: dose 1 mg/kg, time < 24 hrs, route iv; settings: in vivo
[24] = Clearance in Beagle dog at 1 mg/kg, iv measured upto 24 hrs by LC-MS/MS analysis; format: ADME, organism-based, Canis lupus familiaris; settings: in vivo
[25] = Volume of distribution at steady state in Beagle dog at 1 mg/kg, iv measured upto 24 hrs by LC-MS/MS analysis; format: ADME, organism-based, Canis lupus familiaris; settings: in vivo, read-out: Vdss

C[C@H]1CC2(CCN(c3ccc(C(=O)N4CCC(CN5Cc6cc7c(cc6C5)C(=O)N(C5CCC(=O)NC5=O)C7=O)CC4)cc3)CC2)CN1c1ccc(C#N)c(Cl)c1 (stereo not given in full)
half-life [1]: 9.9 h | inhibition in vivo at 20 mg/kg [2]: 68% | remaining at 2 h [3]: 87% | remaining at 2 h [4]: 69% | bioavailability at 24 h [5]: 44% | half-life [6]: > 2 h | half-life [7]: > 2 h | Cmax at 24 h [8]: 871 ng/mL | AUC(0-t) at 24 h [9]: 6020 ng·h/mL | remaining at 2 h [10]: 71% | remaining at 2 h [11]: 82% | Vd at 24 h [12]: 1.7 L/kg | Activity [13]: Non-Toxic | Cmax [14]: 1520 ng/mL | half-life [15]: > 2 h | Tmax [16]: 3 h | half-life [17]: 9.62 h | half-life [18]: > 2 h | half-life [19]: > 2 h | remaining at 2 h [20]: 52% | AUC(0-t) at 24 h [21]: 10300 ng·h/mL | bioavailability [22]: 99% | AUC(0-t) at 24 h [23]: 4860 ng·h/mL | clearance [24]: 3.17 mL/min/kg | Vd [25]: 1.74 L/kg
